The RepoRT retention time repository
Structures can show the parent of a compound that is named as a salt.

test: RP, Waters ACQUITY UPLC HSS T3, 150 × 2.1 mm, 1.8 µm, 45 °C, 0.6 mL/min, estimated dead time 0.55 min; A: water + 0.1% formic acid, pH 3; B: acetonitrile + 0.1% formic acid, pH 3; gradient (min/%B) 0/1 0.1/1 10/55 10.15/65 10.30/75 10.45/85 10.60/95 10.70/100 11/100 11.55/100 11.65/1 11.70/1 11.80/1 11.90/1 12/1 12.10/1 12.15/1 12.65/1; conditions: stereoisomer not certain

| Structure (SMILES) | LC retention time [min] |
| --- | --- |
| O=C(O)CC(CC(=O)O)C(=O)O [1,2,3-Propanetricarboxylic acid] | 1.38 |
| Cn1c(=O)[nH]c2[nH]c(=O)n(C)c2c1=O [1,7-Dimethyluric acid] | 2.57 |
| O=C(O)c1cc(O)ccc1O [2,5-Dihydroxybenzoic acid] | 3.16 |
| O=C(O)c1c(O)cccc1O [2,6-Dihydroxybenzoic acid] | 3.76 |
| CCC(C)(O)C(=O)O (centres undefined) [2-Hydroxy-2-methylbutyric acid] | 2.45 |
| CC(C)C(O)C(=O)O (centres undefined) [2-Hydroxy-3-methylbutyric acid] | 2.74 |
| CC(C)(O)C(=O)O [2-Hydroxyisobutyric acid] | 1.62 |
| CC(CCC(=O)O)C(=O)O (centres undefined) [2-Methylglutaric acid] | 2.8 |
| O=C(O)c1cc(O)cc(O)c1 [3,5-Dihydroxybenzoic acid] | 2.35 |
| CCCc1oc(CCC(=O)O)c(C(=O)O)c1C [3-Carboxy-4-methyl-5-propyl-2-furanpropionic acid (CMPF)] | 8.1 |
| O=C(O)CNC(=O)c1cccc(O)c1 [3-Hydroxyhippuric acid] | 2.73 |
| CC(CO)C(=O)O (centres undefined) [3-Hydroxyisobutyric acid] | 1.59 |
| CC(C)(O)CC(=O)O [3-Hydroxyisovaleric acid] | 2.1 |
| CC(CC(=O)O)CC(=O)O [3-Methylglutaric acid] | 2.66 |
| O=C(O)C=Cc1ccc(O)cc1 [4-Hydroxycinnamic acid] | 4.35 |
| O=C(O)CNC(=O)c1ccc(O)cc1 [4-Hydroxyhippuric acid] | 2.45 |
| O=C(O)Cc1ccc(O)cc1 [4-Hydroxyphenylacetic acid] | 3.41 |
| O=C(O)C(O)Cc1ccc(O)cc1 (centres undefined) [4-Hydroxyphenyllactic acid] | 2.81 |
| O=S(=O)(O)Oc1ccc2[nH]ccc2c1 [5-Hydroxyindole sulfate] | 2.81 |

| Structure (SMILES) | LC retention time [min] |
| --- | --- |
| CC(CC(=O)O)C1CCC2C3C(O)CC4CC(O)CCC4(C)C3CC(O)C12C (centres undefined) [23-Norcholic acid] | 8.58 |
| CC1=CC(=O)NS(=O)(=O)O1 [Acesulfame] | 1.9 |
| CC(=O)Nc1ccc(OC2OC(C(=O)O)C(O)C(O)C2O)cc1 (centres undefined) [Acetaminophen glucuronide] | 1.92 |
| CC(=O)Nc1ccc(OS(=O)(=O)O)cc1 [Acetaminophen sulfate] | 2.26 |
| Nc1ncnc2c1ncn2C1OC2COP(=O)(O)OC2C1O (centres undefined) [Adenosine 3',5'-cyclic monophosphate] | 1.62 |
| O=C(O)C=C(CC(=O)O)C(=O)O [Cis-aconitic acid] | 1.3 |
| O=C(O)CC(O)(CC(=O)O)C(=O)O [Citric acid] | 1.12 |
| CC12CCC3C(CC=C4CC(OS(=O)(=O)O)CCC43C)C1CCC2=O (centres undefined) [Dehydroepiandrosterone sulfate] | 7.92 |
| CC12CCC3C(CC=C4CC(OC5OC(C(=O)O)C(O)C(O)C5O)CCC43C)C1CCC2=O (centres undefined) [Dehydroisoandrosterone 3-glucuronide] | 7.43 |
| CC(CCC(=O)O)C1CCC2C3CCC4CC(O)CCC4(C)C3CC(O)C12C (centres undefined) [Deoxycholic acid] | 10.9 |
| NCCc1ccc(O)c(OS(=O)(=O)O)c1 [Dopamine 3-O-sulfate] | 1.56 |
| NCCc1ccc(OS(=O)(=O)O)c(O)c1 [Dopamine 4-O-sulfate] | 1.49 |
| O=C(O)c1cc(O)c(O)c(O)c1 [Gallic acid] | 1.72 |
| O=C(O)CCCC(=O)O [Glutaric acid] | 1.86 |
| CC(CCC(=O)NCC(=O)O)C1CCC2C3CCC4CC(O)CCC4(C)C3CC(O)C12C (centres undefined) [Glycodeoxycholic acid] | 10.1 |
| Nc1nc2c(ncn2C2OC(CO)C(O)C2O)c(=O)[nH]1 (centres undefined) [Guanosine] | 1.43 |
| O=c1[nH]cnc2nc[nH]c12 [Hypoxanthine] | 1.2 |
| O=C(O)CC(C(=O)O)C(O)C(=O)O (centres undefined) [Isocitric acid] | 0.77 |
| O=C1O[C@H]([C@@H](O)CO)C(O)=C1OS(=O)(=O)O [L-Ascorbic acid 2-sulfate] | 0.71 |

| Structure (SMILES) | LC retention time [min] |
| --- | --- |
| O=C(O)CC(O)C(=O)O (centres undefined) [Malic acid] | 0.752 |
| CC(CC(=O)O)C(=O)O (centres undefined) [Methylsuccinic acid] | 2.19 |
| CC(=O)NCCC(=O)NC(Cc1cnc[nH]1)C(=O)O [N-Acetyl-L-carnosine] | 0.92 |
| CC(=O)NC(CC(=O)O)C(=O)O (centres undefined) [N-Acetylaspartic acid] | 1 |
| CC(=O)NC(CCC(N)=O)C(=O)O (centres undefined) [N-Acetylglutamine] | 0.978 |
| CCC(C)C(NC(C)=O)C(=O)O (centres undefined) [N-Acetylisoleucine] | 4.03 |
| CC(=O)NC(Cc1ccccc1)C(=O)O (centres undefined) [N-Acetylphenylalanine] | 4.66 |
| CC(=O)NC(Cc1c[nH]c2ccccc12)C(=O)O (centres undefined) [N-Acetyltryptophan] | 4.96 |
| CC(=O)NC(Cc1ccc(O)cc1)C(=O)O (centres undefined) [N-Acetyltyrosine] | 2.97 |
| CC(=O)NC(CCC(=O)O)C(=O)O (centres undefined) [N-acetylglutamic acid] | 1.35 |
| CC(=O)NC(CCCN=C(N)N)C(=O)O [Na-Acetyl-L-arginine] | 0.91 |
| NC(Cc1ccc(OS(=O)(=O)O)cc1)C(=O)O (centres undefined) [O-Sulfotyrosine] | 1.5 |
| CC(C)(CO)C(O)C(=O)NCCC(=O)O (centres undefined) [Pantothenic acid] | 2.31 |
| O=C(O)CNC(=O)Cc1ccccc1 [Phenylacetylglycine] | 4.01 |
| O=C(O)C(O)Cc1ccccc1 (centres undefined) [Phenyllactic acid] | 4.51 |
| CC(O)C1CCC2C3CCC4CC(OC5OC(C(=O)O)C(O)C(O)C5O)CCC4(C)C3CCC12C (centres undefined) [Pregnanediol-3-glucuronide] | 9.23 |
| CC(=O)C1CCC2C3CC=C4CC(OS(=O)(=O)O)CCC4(C)C3CCC12C (centres undefined) [Pregnenolone sulfate] | 9.81 |
| NC(CCCCn1c(C=O)ccc1CO)C(=O)O (centres undefined) [Pyrraline] | 2.49 |
| Cc1cc2nc3c(=O)[nH]c(=O)nc-3n(CC(O)C(O)C(O)CO)c2cc1C (centres undefined) [Riboflavin] | 3.82 |

The next lines start with the values.

| LC retention time [min] | Structure (SMILES) |
| --- | --- |
| 2.95 | Cn1c(=O)c2c([nH]c(=O)n2C)n(C)c1=O [1,3,7-Trimethyluric acid] |
| 4.11 | O=C(O)Cc1ccccc1O [2-Hydroxyphenylacetic acid] |
| 1.94 | Cn1c(=O)[nH]c(=O)c2c1[nH]c(=O)n2C [3,7-Dimethyluric acid] |
| 1.55 | CC(O)(CC(=O)O)CC(=O)O [3-Hydroxy-3-methylglutaric acid] |
| 3.74 | O=C(O)Cc1cccc(O)c1 [3-Hydroxyphenylacetic acid] |
| 3.22 | CCC(C)C(=O)C(=O)O (centres undefined) [3-Methyl-2-oxovaleric acid] |
| 5.73 | CCc1ccc(OS(=O)(=O)O)cc1 [4-Ethylphenylsulfate] |
| 3.16 | O=C(O)c1ccc(O)cc1 [4-Hydroxybenzoic acid] |
| 8.65 | CC(CCC(=O)O)C1CCC2C3C(=O)CC4CC(O)CCC4(C)C3CC(O)C12C (centres undefined) [7-Ketodeoxycholic acid] |
| 2.05 | Cn1c[n+](C2OC(CO)C(O)C2O)c2nc(N)[nH]c(=O)c21 (centres undefined) [7-Methylguanosine] |
| 2.59 | O=C(O)CCCCC(=O)O [Adipic acid] |
| 5.48 | O=C(O)CCCCCCCC(=O)O [Azelaic acid] |
| 9.75 | CC(CCC(=O)O)C1CCC2C3C(O)CC4CC(O)CCC4(C)C3CC(O)C12C (centres undefined) [Cholic acid] |
| 1.73 | CC(=CC(=O)O)C(=O)O [Citraconic acid] |
| 8.4 | CC(CCC(=O)NCC(=O)O)C1CCC2C3C(O)CC4CC(O)CCC4(C)C3CC(O)C12C (centres undefined) [Glycocholic acid] |
| 8.94 | CC(CCC(=O)NCC(=O)O)C1CCC2C3CCC4CC(OS(=O)(=O)O)CCC4(C)C3CC(O)C12C (centres undefined) [Glycodeoxycholic acid-3-sulfate] |

| LC retention time [min] | Structure (SMILES) |
| --- | --- |
| 10.2 | CC(CCC(=O)NCC(=O)O)C1CCC2C3CCC4CC(OS(=O)(=O)O)CCC4(C)C3CCC12C (centres undefined) [Glycolithocholic acid-3-sulfate] |
| 8.4 | CC(CCC(=O)NCC(=O)O)C1CCC2C3C(O)CC4CC(O)CCC4(C)C3CCC12C (centres undefined) [Glycoursodeoxycholic acid] |
| 3.8 | COc1cc(CC(=O)O)ccc1O [Homovanillic acid] |
| 8.62 | CC(C)Cc1ccc(C(C)C(=O)OC2OC(C(=O)O)C(O)C(O)C2O)cc1 (centres undefined) [Ibuprofen acyl glucuronide] |
| 4.86 | O=C(O)C(O)Cc1c[nH]c2ccccc12 (centres undefined) [Indolelactic acid] |
| 3.39 | O=C(O)C1OC(Oc2c[nH]c3ccccc23)C(O)C(O)C1O (centres undefined) [Indoxyl glucuronide] |
| 3.4 | O=S(=O)(O)Oc1c[nH]c2ccccc12 [Indoxyl sulfate] |
| 1.61 | O=c1[nH]cnc2c1ncn2C1OC(CO)C(O)C1O (centres undefined) [Inosine] |
| 2.07 | CC(C)C(=O)NCC(=O)O [Isobutyrylglycine] |
| 3.52 | CC(C)CC(=O)C(=O)O [Ketoleucine] |
| 3.07 | CC(C)CC(=O)NCC(=O)O [N-Isovaleroylglycine] |
| 0.81 | O=C(O)c1cc(=O)[nH]c(=O)[nH]1 [Orotic acid] |
| 3.01 | O=S(=O)(O)Oc1ccccc1 [Phenol sulfate] |
| 2.05 | NC(Cc1ccccc1)C(=O)O (centres undefined) [Phenylalanine] |
| 3.46 | O=C(O)CCCCCC(=O)O [Pimelic acid] |
| 1.25 | O=C1CCC(C(=O)O)N1 (centres undefined) [Pyroglutamic acid] |
